Assay results published in PubChem BioAssay (NCI).
Values joined by “and” are separate entries in the source; they are usually repeats but may differ in a detail not shown here. Equal values may be shown once.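 All cell lines were grown in 96-well plates and treated with compound for 48 hours. The concentration for 50% growth inhibition is given as GI50. TGI marks complete inhibition of growth.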

Legend:
Experiment in all cases: NCI tumour cell line growth inhibition, 48 h
HS 578T breast = system: HS 578T breast
OVCAR-8 ovarian = system: OVCAR-8 ovarian
MALME-3M melanoma = system: MALME-3M melanoma
NCI-H522 lung = system: NCI-H522 lung
T-47D breast = system: T-47D breast
HOP-62 NSCLC = system: HOP-62 NSCLC

Structure (SMILES)	GI50 (HS 578T breast)	TGI (HS 578T breast)	GI50 (OVCAR-8 ovarian)	TGI (OVCAR-8 ovarian) [µM]	GI50 (MALME-3M melanoma)	TGI (MALME-3M melanoma)	GI50 (NCI-H522 lung)	TGI (NCI-H522 lung) [µM]	GI50 (T-47D breast)	TGI (T-47D breast)	GI50 (HOP-62 NSCLC)	TGI (HOP-62 NSCLC)
Cc1nn(-c2ccccc2)c2c1C1C(=C(c3ccc(Cl)cc3)N2)C(=O)Nc2ccccc21 (configuration not stated)	8.59 µM	> 100 µM	3.26 µM	67	2.68 µM	21.2 µM	1.78 µM	3.86	4.33 µM	38.5 µM	9.88 µM	> 100 µM
C[C@@H](NC(=O)Cc1cc(F)cc(F)c1)C(=O)N[C@@]1(C)N=C(c2ccccc2)c2ccccc2N(C)C1=O	24.7 µM	> 100 µM	65.1 µM	> 100	> 60.8 µM	> 100 µM	69.2 µM	> 100		> 66.6 µM	64.7 µM	> 100 µM
N#CC1c2ccccc2-c2ccccc2N1C(=O)c1ccccc1 (configuration not stated)	1.99 µM	6.72 µM	3.63 µM	96.9	1.22 µM	54.2 µM	0.223 µM	1.48	25.7 µM	> 100 µM	4.46 µM	> 100 µM
Cn1c(=O)n(-c2ccc(C(C)(C)C#N)cc2)c2c3cc(-c4cnc5ccccc5c4)ccc3ncc21	< 0.01 µM and 0.00204 µM	0.0195 µM and 0.00587 µM	0.0101 µM and 0.00582 µM and < 0.01 µM		0.00576 µM and < 0.01 µM	0.04 µM and 0.0568 µM	< 0.0107 µM and 0.00646 µM and < 0.0112 µM		< 0.01 µM and 0.0141 µM	0.0488 µM and 0.0817 µM	< 0.01 µM and 0.00605 µM	11.9 µM and > 2.72 µM
CC[C@@]1(OC(=O)CN)C(=O)OCc2c1cc1n(c2=O)Cc2cc3cc(N)ccc3nc2-1	1.97 µM	> 100 µM			0.195 µM	2.52 µM	0.0139 µM	0.34	< 0.0359 µM	> 100 µM	< 0.01 µM	0.847 µM
O=C1c2cccnc2C(=O)c2c1c(C(=O)OCCCN1CCOCC1)c1ccccn21			< 0.01 µM	1.92	0.0125 µM	1.71 µM	< 0.01 µM	< 0.0127	0.178 µM	5.94 µM		
O=C1c2ccccc2-c2cc3ccccc3c(=O)n21		> 100 µM		> 100				> 100		> 100 µM		
CCOC(=O)c1[nH]c2c(c1C)-c1[nH]c(=O)c(S(=O)(=O)c3ccccc3)cc1SC2	24.7 µM	94 µM	37.7 µM	> 100	36.4 µM	> 100 µM	28.7 µM	> 100	15.4 µM	58.9 µM	44.3 µM	> 100 µM
Cc1nnc([S-])s1.[Au+].c1ccc([PH+](c2ccccc2)c2ccccc2)cc1					1.59 µM	3 µM	0.692 µM	3.17	2.2 µM	6.12 µM		
CCN(CC)CCC(=O)Nc1ccc(Cn2nnc3c2C(=O)c2nnn(Cc4ccc(NC(=O)CCN(CC)CC)cc4)c2C3=O)cc1	2.34 µM	8.84 µM	1.83 µM	4.41	0.137 µM	0.294 µM	0.18 µM	0.423			1.75 µM	3.42 µM
COc1ccc2c(c1O)[C@@]13C=C(O)C(=O)C=C1[C@@H](C2)N(C)CC3		> 100 µM		> 100		> 100 µM		> 100		> 100 µM		> 100 µM
c1ccc2c(c1)nc(NCCN1CCNCC1)c1c3ccccc3[nH]c21	1.19 µM	4.67 µM	0.111 µM	0.883	1.79 µM	3.82 µM	0.22 µM	1.07	0.903 µM	3.83 µM	0.404 µM	2.2 µM
CC1Cc2c(N(C)C)ncnc2N(C)c2ccc(Cl)cc21 (configuration not stated)	3.08 µM	> 100 µM	9.17 µM	> 100	3.73 µM	60 µM	2.79 µM	35.3	6.56 µM	> 100 µM	4.81 µM	73.4 µM
Nc1ncnc2occ(-c3ccc(NC(=O)Nc4cc(C(F)(F)F)cc(C(F)(F)F)c4)cc3)c12	2.12 µM	8.03 µM	2.89 µM	7.11	4.09 µM	9.27 µM	2.55 µM	5.67	3.27 µM	7.54 µM	3.66 µM	6.99 µM
CN1C(=O)c2cc(Cl)nc3c(NC(=O)c4cccc(Cl)c4)c(Cl)c(NC(=O)c4cccc(Cl)c4)c1c23	2.48 µM	7.16 µM	2.48 µM	5.7	1.66 µM	3.44 µM	1.82 µM	3.75	1.77 µM	4.32 µM		
COC(=O)c1cc(Nc2ccc(O)c3c2C(=O)c2c([N+](=O)[O-])ccc(O)c2C3=O)cc(C(=O)OC)c1	3.77 µM	> 100 µM	6.57 µM	> 100	2.75 µM	6.39 µM	4.07 µM	28.3	4.78 µM	> 100 µM	4.04 µM	> 100 µM

Structure (SMILES)	GI50 (HS 578T breast)	TGI (HS 578T breast)	GI50 (OVCAR-8 ovarian)	TGI (OVCAR-8 ovarian) [µM]	GI50 (MALME-3M melanoma)	TGI (MALME-3M melanoma)	GI50 (NCI-H522 lung)	TGI (NCI-H522 lung) [µM]	GI50 (T-47D breast)	TGI (T-47D breast)	GI50 (HOP-62 NSCLC)	TGI (HOP-62 NSCLC)
O=c1oc(-c2ccc(O)c(O)c2)cc2cc(O)cc(O)c12	39.5 µM	94.4 µM	42.1 µM	> 100	57.5 µM	> 100 µM	27.3 µM	> 100	54.5 µM	> 100 µM	33 µM	90.4 µM
CC1(C)N=C(N)N=C(N)N1c1ccc(OCC(=O)Nc2cccc(S(=O)(=O)F)c2)c(Cl)c1		> 100 µM		> 100		> 19.9 µM		> 100		> 100 µM		> 79.7 µM
CCCC/C(=N\N=C(N)N)c1ccc(F)cc1	2.88 µM	8.81 µM	3.61 µM	15.2	4.13 µM	18.5 µM	3.79 µM	16.5	2.61 µM	15.6 µM	3.81 µM	15.8 µM
Cc1ccc(C2=Nc3c(N)ncnc3NC(c3cccc(Nc4ccnc5cc(C(F)(F)F)ccc45)c3)C2)cc1 (configuration not stated)	4.01 µM	> 100 µM	5.89 µM	76.7	3 µM	23.1 µM	2.27 µM	7.51	4.45 µM	> 100 µM	5.38 µM	52.1 µM
O=C(/C=C/N1CCN(c2cccc(C(F)(F)F)c2)CC1)c1ccc(Cl)cc1Cl	27.5 µM	63.8 µM	28.5 µM	83.4	17.4 µM	36.2 µM	36.1 µM	> 100	82.8 µM	> 100 µM	19 µM	35.4 µM
COc1cc(C(c2cc3c(cc2O)OCO3)N2CCCC2)cc(OC)c1OC (configuration not stated)				34		20.7 µM		11.5		45.7 µM		97.5 µM
CCN(CC)CCOc1ccc(/C=C2\C[C@H]3[C@@H]4CC=C5C[C@@H](OC(C)=O)CC[C@]5(C)[C@H]4CC[C@]3(C)[C@H]2OC(C)=O)cc1OC	10.6 µM	22.4 µM	11.4 µM	22.7			17.4 µM	> 50	16.3 µM	48.1 µM	10.1 µM	19.5 µM
C/C(=C(/c1ccc(O)cc1)c1ccc(OCCN2CCCC2)cc1)c1ccccc1	2.96 µM	9.9 µM	5.73 µM	23.1	1.7 µM	3.41 µM	2.1 µM	5.09	0.716 µM	7.93 µM	2.1 µM	4.54 µM
CCCCCCCCCCCCCCCC[N+]1(CC)CCCC1	0.679 µM	3.26 µM			0.582 µM	1.98 µM			0.528 µM	3.93 µM	1.03 µM	2.52 µM
CC(C)(C)n1cc(-c2ccnc(NCCNS(=O)(=O)c3ccc(Br)cc3)c2)c(-c2cccc(O)c2)n1			2.27 µM	7.71	1.67 µM	3.34 µM	1.79 µM	4.04	1.65 µM	5.44 µM	1.5 µM	3 µM
Cc1c(C(C)C)cc(OCCO)cc1C(C)C		93.3 µM		> 100				81.5		> 100 µM		> 100 µM
O=C1C=C(Nc2cccc(Br)c2)c2ccccc2C1=O	0.259 µM	14.4 µM	18.6 µM	93.4			4.79 µM	60.1			2.29 µM	26.1 µM
COc1ccc(C2=CC(c3cc(OC)c(OC)c(OC)c3)n3ncnc3N2)cc1 (configuration not stated)	0.0734 µM	> 100 µM	0.0763 µM	21.6			0.0324 µM	0.654			0.0588 µM	25.2 µM
Cc1ccc([P+](Cc2ccc([N+](=O)[O-])cc2)(c2ccc(C)cc2)c2ccc(C)cc2)cc1	3.46 µM	17.7 µM	2.96 µM	13			1.56 µM	4.26			10.4 µM	23.8 µM
COc1c(O)c(OC)c(C(=O)/C=C/c2ccccc2)c(O)c1OC		> 100 µM		38.1		> 100 µM		31.9		79.7 µM		
CO[C@H]1C=C[C@]23c4cc5c(cc4CN(CC2O)[C@@H]3C1)OCO5 (some centres not stated)		81.9 µM		38.5		20.4 µM		16		18.2 µM		
